Laboratory results from patent US20110064833A1, “SYNERGISTIC HERBAL COMPOSITION AND PROCESS OF PREPARATION THEREOF” (priority 2007, published 2011).

Test system: streptozotocin diabetic rats
Experiment: In-vivo efficacy screening in streptozotocin diabetic Sprague Dawley rats, 35 days oral gavage
Source text: The number of animals per dose group is five and is kept for examination and acclimatization for a week period at the start of the study. The total number of dose groups is six along with vehicle control. The different groups are G1-Vehicle control, G2-Diabetic control, G-3 Diabetic animals treated with Pioglitazone (Standard anti-diabetic drug). […] Blood is collection under CO2 anesthesia by retro orbital (ROP) plexus method and FBG analysis. Rats are fed with 5% glucose water for two days before STZ injection and are fasted for 12 hours before administering streptozotocin. The rats are injected intra-peritoneal with 45 mg/kg-body weight of streptozotocin in a citrate buffer ph: 4.5 and allowed for week recovery. Rats are fasted for 12 hours after 7th day of STZ injection and blood collected in heparin as the anti-coagulant, under CO2 anesthesia and analyzed for FBG. Rats that have the range of FBG beyond 250 mg/dl and above are considered for the study.
Selection, randomization and grouping of the animals into different treatment groups with the FBG range of 250 mg/dl is undertaken as above. […] The dosage volume administered to individual rat was adjusted according to its most recently recorded body weights. […] All signs of ill health, together with any behavioral changes or reaction to treatment are recorded for individual animals. […]

| SMILES | increase in fasting blood glucose from baseline at the end of 35 days (glebenclamide, dose not stated) | increase in fasting blood glucose from baseline at the end of 35 days (pioglitazone 20 mg/kg-body weight) |
| --- | --- | --- |
| COc1ccc(Cl)cc1C(=O)NCCc1ccc(S(=O)(=O)NC(=O)NC2CCCCC2)cc1 [glebenclamide] | about 110% | – |
| CCc1ccc(CCOc2ccc(CC3SC(=O)NC3=O)cc2)nc1 (centres unmarked) [pioglitazone] | – | about 98% |
